Measurements reported in patent US9365583B2, “Substituted pyrazoles and uses thereof” (Genentech, Inc., priority 2013, dated 2016).

Target: T1, N-terminally GST-tagged DLK (catalytic domain amino acid 1-520) (Homo sapiens, UniProt Q12852)
T1 construct: N-terminally GST-tagged DLK (catalytic domain amino acid 1-520); purchased Carna Bioscience
T1 sequence (Q12852 1-520): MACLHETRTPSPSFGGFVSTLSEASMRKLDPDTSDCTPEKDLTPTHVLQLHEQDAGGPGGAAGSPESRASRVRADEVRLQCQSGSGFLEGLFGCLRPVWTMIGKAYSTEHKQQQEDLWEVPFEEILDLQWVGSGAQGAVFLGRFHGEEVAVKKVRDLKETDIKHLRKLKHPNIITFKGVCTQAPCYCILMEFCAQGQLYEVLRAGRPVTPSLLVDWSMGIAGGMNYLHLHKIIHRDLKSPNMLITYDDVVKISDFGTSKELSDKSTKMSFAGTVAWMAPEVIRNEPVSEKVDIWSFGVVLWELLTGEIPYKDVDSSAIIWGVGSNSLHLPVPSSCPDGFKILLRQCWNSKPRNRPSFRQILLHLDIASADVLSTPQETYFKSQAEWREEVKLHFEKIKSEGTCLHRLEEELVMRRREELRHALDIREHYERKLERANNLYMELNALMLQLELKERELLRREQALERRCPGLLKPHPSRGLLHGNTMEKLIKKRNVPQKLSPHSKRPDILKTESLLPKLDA
Test: DLK TR-FRET inhibition assay
Format: biochemical
Conditions: 5 nM GST-DLK, 40 nM HIS-MKK4 K131M substrate, 30 μM ATP, 60 minutes at ambient temperature
Outline: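 5 nM GST-DLK (aa 1-520), 40 nM HIS-MKK4 K131M and 30 μM ATP reacted 60 min at ambient temperature in HEPES pH 7.5 buffer with 10 mM MgCl2, compound 1:3 serially diluted from 20 uM. TR-FRET detection of phospho-MKK4 used Eu-cryptate anti-phospho-MKK4 plus D2 anti-HIS, read after 3 h (665/615 nm).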

| Structure (SMILES) | Ki [nM] |
| --- | --- |
| CC(C)n1nc(-c2cnc(N)c(C(F)(F)F)c2)cc1[C@H]1[C@@H]2C[C@@H](N)C[C@@H]21 [compound 276, 5-(5-((1R,3s,5S,6r)-3-aminobicyclo [3.1.0]hexan-6-yl)-1-isopropyl-1H-pyrazol-3-yl)-3-(trifluoro-methyl)pyridin-2-amine] | 1.8 |
| CC(C)n1nc(-c2cnc(N)c(OC(F)F)c2)cc1[C@H]1[C@@H]2C[C@@H](N3CC4CC(C3)O4)C[C@@H]21 [compound 278, 5-(5-((1R,3s,5S,6r)-3-(6-oxa-3-azabicyclo[3.1.1]heptan-3-yl)bicyclo[3.1.0]hexan-6-yl)-1-isopropyl-1H-pyrazol-3-yl)-3-(difluoromethoxy)pyridin-2-amine] | 1.4 |
| Nc1ncc(-c2cc([C@H]3[C@@H]4C[C@@H](N5CCOCC5)C[C@@H]43)n(CC3CC3)n2)cc1OC(F)F [compound 279, 5-(1-(cyclopropylmethyl)-5-((1R,3s,5S,6r)-3-morpholinobicyclo [3.1.0]hexan-6-yl)-1H-pyrazol-3-yl)-3-(difluoromethoxy)pyridin-2-amine] | 1.6 |
| Nc1ncc(-c2cc([C@H]3[C@@H]4C[C@@H](N5CCOCC5)C[C@@H]43)n(CC3CC3)n2)cc1C(F)(F)F [compound 280, 5-(1-(cyclopropylmethyl)-5-((1R,3s,5S,6r)-3-morpholinobicyclo [3.1.0]hexan-6-yl)-1H-pyrazol-3-yl)-3-(trifluoromethyl)pyridin-2-amine] | 1.1 |
| CC(C)n1nc(-c2cnc(N)c(CC(F)(F)F)c2)cc1[C@H]1[C@@H]2C[C@@H](N3CCOCC3)C[C@@H]21 [compound 281, 5-(1-isopropyl-5-((1R,3s,5S,6r)-3-morpholinobicyclo[3.1.0]hexan-6-yl)-1H-pyrazol-3-yl)-3-(2,2,2-trifluoroethyl)pyridin-2-amine] | 18.4 |
| CC(C)n1nc(-c2cnc(N)c(OC(F)(F)F)c2)cc1[C@H]1[C@@H]2C[C@H](NCC(F)F)C[C@@H]21 [compound 282, 5-(5-((1R,3r,5S,6r)-3-((2,2-difluoroethyl)amino)bicyclo[3.1.0]hexan-6-yl)-1-isopropyl-1H-pyrazol-3-yl)-3-(trifluoromethoxy) pyridin-2-amine] | 7.7 |
| Nc1ncc(-c2cc([C@@H]3[C@@H]4C[C@H](N5CCOCC5)C[C@@H]43)n(CC3CC3)n2)cc1OC(F)(F)F [compound 283, 5-(1-(cyclopropylmethyl)-5-((1R,3r,5S,6s)-3-morpholinobicyclo [3.1.0]hexan-6-yl)-1H-pyrazol-3-yl)-3-(tritluoromethoxy) pyridin-2-amine] | 209 |
| COCCN(C)[C@H]1C[C@@H]2[C@H](C1)[C@H]2c1cc(-c2cnc(N)c(C(F)(F)F)c2)nn1C(C)C [compound 284, 5-(1-isopropyl-5-((1R,3r,5S,6r)-3-((2-methoxyethyl)(methyl)amino)bicyclo[3.l.0]hexan-6-yl)-1H-pyrazol-3-yl)-3-(trifluoromethyl) pyridin-2-amine] | 5.7 |
| CC(C)n1nc(-c2cnc(N)c(OC(F)F)c2)cc1[C@H]1[C@@H]2C[C@H](N3CC[C@H](F)C3)C[C@@H]21 [compound 285, 3-(difluoromethoxy)-5-(5-((1R,3r,5S,6S)-3-((S)-3-fluoropyrrolidin-1-yl)bicyclo[3.1.0]hexan-6-yl)-1-isopropyl-1H-pyrazol-3-yl) pyridin-2-amine] | 4.3 |
| CO[C@H]1CCCN([C@H]2C[C@@H]3[C@H](C2)[C@H]3c2cc(-c3cnc(N)c(C(F)(F)F)c3)nn2C(C)C)C1 [compound 286, 5-(1-isopropyl-5-((1R,3r,5S,6S)-3-((S)-3-methoxypiperidin-1-yl)bicyclo[3.1.0]hexan-6-yl)-1H-pyrazol-3-yl)-3-(trifluoromethyl) pyridin-2-amine] | 3.4 |
| CC(C)n1nc(-c2cnc(N)c(C(F)(F)F)c2)cc1[C@H]1[C@@H]2C[C@H](OC3COC3)C[C@@H]21 [compound 287, 5-(1-isopropyl-5-((1R,3r,5S,6r)-3-(oxetan-3-yloxy)bicyclo[3.1.0]hexan-6-yl)-1H-pyrazol-3-yl)-3-(trifluoromethyl)pyridin-2-amine] | 6.3 |
| CC(C)n1nc(-c2cnc(N)c(OC(F)(F)F)c2)cc1[C@H]1[C@@H]2C[C@@H](NCC(F)F)C[C@@H]21 [compound 288, 5-(5-((1R,3s,5S,6r)-3-((2,2-udifloroethyl)amino)bicyclo[3.1.0]hexan-6-yl)-1-isopropyl-1H-pyrazol-3-yl)-3-(tritluoromethoxy) pyridin-2-amine] | 6.3 |
| CC(C)n1nc(-c2cnc(N)c(OC(F)F)c2)cc1[C@H]1[C@@H]2C[C@@H](N3CC[C@H](F)C3)C[C@@H]21 [compound 289, 3-(difluoromethoxy)-5-(5-((1R,3s,5S,6S)-3-((S)-3-fluoropyrrolidin-1-yl)bicyclo[3.1.0]hexan-6-yl)-1-isopropyl-1H-pyrazol-3-yl) pyridin-2-amine] | 4.4 |
| CO[C@H]1CCCN([C@@H]2C[C@@H]3[C@H](C2)[C@H]3c2cc(-c3cnc(N)c(C(F)(F)F)c3)nn2C(C)C)C1 [compound 290, 5-(1-isopropyl-5-((1R,3s,5S,6S)-3-((S)-3-methoxypiperidin-1-yl)bicyclo[3.1.0]hexan-6-yl)-1H-pyrazol-3-yl)-3-(trifluoromethyl) pyridin-2-amine] | 7.7 |
| COCCN(C)[C@@H]1C[C@@H]2[C@H](C1)[C@H]2c1cc(-c2cnc(N)c(C(F)(F)F)c2)nn1C(C)C [compound 291, 5-(1-isopropyl-5-((1R,3s,5S,6r)-3-((2-methoxyethyl)(methyl)amino)bicyclo[3.1.0]hexan-6-yl)-1H-pyrazol-3-yl)-3-(trifluoromethyl) pyridin-2-amine] | 4.7 |
| Nc1ncc(-c2cc([C@H]3[C@@H]4C[C@@H](N5CCOCC5)C[C@@H]43)n(CC3CC3)n2)cc1OC(F)(F)F [compound 292, 5-(1-(cyclopropylmethyl)-5-((1R,3s,5S,6r)-3-morpholinobicyclo [3.1.0]hexan-6-yl)-1H-pyrazol-3-yl)-3-(trifluoromethoxy) pyridin-2-amine] | 4.6 |
| Nc1ncc(-c2cc([C@H]3[C@@H]4C[C@@H](N5CCOCC5)C[C@@H]43)n(CC(F)F)n2)cc1C(F)(F)F [compound 293, 5-(1-(2,2-difluoroethyl)-5-((1R,3s,5S,6r)-3-morpholinobicyclo [3.1.0]hexan-6-yl)-1H-pyrazol-3-yl)-3-(trifluoromethyl)pyridin-2-amine] | 3 |
| CC(C)n1nc(-c2cnc(N)c(C(F)(F)F)c2)cc1[C@H]1[C@@H]2C[C@@H](OC3COC3)C[C@@H]21 [compound 294, 5-(1-isopropyl-5-((1R,3s,5S,6r)-3-(oxetan-3-yloxy)bicyclo[3.1.0]hexan-6-yl)-1H-pyrazol-3-yl)-3-(trifluoromethyl)pyridin-2-amine] | 8.9 |
| Nc1ncc(-c2cc([C@H]3[C@@H]4C[C@H](N5CCOCC5)C[C@@H]43)n(CC3CC3)n2)cc1OC(F)(F)F [compound 295, 5-(1-(cyclopropylmethyl)-5-((1R,3r,5S,6r)-3-morpholinobicyclo [3.1.0]hexan-6-yl)-1H-pyrazol-3-yl)-3-(trifluoromethoxy) pyridin-2-amine] | 2.4 |
